The source of these data is US11566007B2, “Ras inhibitors” (Revolution Medicines, Inc., priority 2019, dated 2023).

The target in one experiment is KRAS G12S (Homo sapiens (Human), UniProt P01116+P62937, G12S). Nature of the experiment: Ras-Raf (BRAF RBD) disruption / FRET / MOA assay, KRAS G12S. Format: biochemical. Conditions: Ras-Raf disruption/FRET/MOA assay; class symbols; read-out: KRAS G12S FRET data IC50. A digest of the protocol:
(§1)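 TR-FRET read-out: a drop in ratio relative to DMSO wells marks disruption of the Ras:RAF complex, reported as IC50. Compounds (3-fold series, 10 points, top 30 μM final) incubated 3 h at 25° C before Eu-anti-His 10 nM and APC-anti-GST 50 nM, 1.5 h more.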

Another experiment addresses KRAS G12D (Homo sapiens (Human), UniProt P01116+P62937, G12D). Put plainly: Ras-Raf (BRAF RBD) disruption / FRET / MOA assay, KRAS G12D. Particulars: Ras-Raf disruption/FRET/MOA assay; class symbols; read-out: KRAS G12D FRET data IC50. Format: biochemical. A digest of the protocol: as §1

By pIC50 is commonly meant the IC50 on a negative log10 scale, so that one unit is a factor of ten.

Structures are written as SMILES. pIC50: −log10 of the molar value.

Chain of KRAS G12S (P01116-2 other isoform, or with tags, fused parts or gaps G12S): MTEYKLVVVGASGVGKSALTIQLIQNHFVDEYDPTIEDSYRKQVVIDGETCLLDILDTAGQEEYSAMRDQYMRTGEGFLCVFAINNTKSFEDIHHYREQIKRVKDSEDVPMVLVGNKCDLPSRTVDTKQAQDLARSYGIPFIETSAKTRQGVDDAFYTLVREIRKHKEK
Chain of KRAS G12S (P62937 whole entry): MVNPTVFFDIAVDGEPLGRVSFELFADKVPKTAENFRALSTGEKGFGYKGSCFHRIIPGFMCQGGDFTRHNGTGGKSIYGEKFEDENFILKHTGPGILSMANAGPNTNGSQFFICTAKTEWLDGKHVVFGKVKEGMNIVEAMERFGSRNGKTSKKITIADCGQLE
Chain of KRAS G12D (P01116-2 other isoform, or with tags, fused parts or gaps G12D): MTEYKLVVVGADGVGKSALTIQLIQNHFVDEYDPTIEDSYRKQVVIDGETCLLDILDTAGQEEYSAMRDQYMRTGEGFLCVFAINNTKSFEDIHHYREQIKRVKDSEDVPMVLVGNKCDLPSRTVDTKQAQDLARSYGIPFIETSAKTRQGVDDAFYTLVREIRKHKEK
Chain of KRAS G12D (P62937 whole entry): as the sequence (P62937 whole entry) above

Regarding `C=CC(=O)N(C)[C@@H]1C[C@H](C)N(C(=O)N(C)[C@H](C(=O)N[C@H]2Cc3nc(cs3)-c3ccc4c(c3)c(c(-c3cccnc3[C@H](C)OC)n4CC)CC(C)(C)COC(=O)[C@@H]3CCCN(N3)C2=O)C(C)C)C1` (atropisomer, axis not shown) [Example A633], the pIC50 on KRAS G12S and at KRAS G12D was 6.00 to 7.00 in each case.

Consider `C=CC(=O)N1CCOC2(CCN(C(=O)N(C)[C@H](C(=O)N[C@H]3Cc4cccc(n4)-c4ccc5c(c4)c(c(-c4cccnc4[C@H](C)OC)n5CC(F)(F)F)CC(C)(C)COC(=O)[C@@H]4CCCN(N4)C3=O)C(C)C)CC2)C1` (atropisomer, axis not shown) [Example A607, 4-acryloyl-N-((2S)-1-(((6^3S,4S)-1^2-(2-((S)-1-methoxyethyl)pyridin-3-yl)-10,10-dimethyl-5,7-dioxo-1^1-(2,2,2-trifluoroethyl)-6^1,6^2,6^3,6^4,6^5,6^6-hexahydro-1^1H-8-oxa-1(5,3)-indola-6(1,3)-pyridazina-2(2,6)-pyridinacycloundecaphane-4-yl)amino)-3-methyl-1-oxobutan-2-yl)-N-methyl-1-oxa-4,9-diazaspiro[5.5]undecane-9-carboxamide], for which the negative-log IC50 (pIC50) at KRAS G12S and at KRAS G12D was 5.00 to 6.00 in each case.

In the case of `C=CC(=O)N1CC(OC[C@H](C(=O)N[C@H]2C[C@H]3CN(CCO3)c3ccc4c(c3)c(c(-c3cccnc3[C@H](C)OC)n4CC(F)(F)F)CC(C)(C)COC(=O)[C@@H]3CCCN(N3)C2=O)C(C)C)C1` (atropisomer, axis not shown) [Example A723], the pIC50 is 5.00 to 6.00 on KRAS G12S and under 5.00 on KRAS G12D.

Consider `C=CC(=O)N1CC2(CCN(C(=O)N(C)[C@H](C(=O)N[C@H]3Cc4cccc(c4)-c4ccc5c(c4)c(c(-c4cccnc4[C@H](C)OC)n5CC)CC(C)(C)COC(=O)[C@@H]4CCCN(N4)C3=O)C(C)C)CC2)C1` (atropisomer, axis not shown) [Example A680], for which the negative-log IC50 (pIC50) at KRAS G12S is 6.00 to 7.00; at KRAS G12D, 5.00 to 6.00.

On to `CCn1c(-c2cccnc2[C@H](C)OC)c2c3cc(ccc31)-c1csc(n1)C[C@H](NC(=O)[C@H](C(C)C)N(C)C(=O)N1CCCOC13CN(C(=O)C#CC(C)(C)N(C)C)C3)C(=O)N1CCC[C@H](N1)C(=O)OCC(C)(C)C2` (atropisomer, axis not shown) [Example A666], for which the negative logarithm of the IC50 (pIC50) on KRAS G12S and on KRAS G12D was under 5.00 each time.

For the molecule `C=CC(=O)N(C)[C@@H]1C[C@@H](C)N(C(=O)N(C)[C@H](C(=O)N[C@H]2Cc3nc(cs3)-c3ccc4c(c3)c(c(-c3cccnc3[C@H](C)OC)n4CC)CC(C)(C)COC(=O)[C@@H]3CCCN(N3)C2=O)C(C)C)C1` (atropisomer, axis not shown) [Example A634], the results for the negative-log IC50 (pIC50) at KRAS G12S and at KRAS G12D were 6.00 to 7.00 and 5.00 to 6.00, respectively.

On to `C=CC(=O)N1CCCC2(CCN(C(=O)N(C)[C@H](C(=O)N[C@H]3Cc4nc(cs4)-c4ccc5c(c4)c(c(-c4cccnc4[C@H](C)OC)n5CC)CC(C)(C)COC(=O)[C@@H]4CCCN(N4)C3=O)C(C)C)CC2)C1` (atropisomer, axis not shown) [Example A635], for which the negative-log IC50 (pIC50) at KRAS G12S was 6.00 to 7.00; on KRAS G12D, 5.00 to 6.00.

With `CCn1c(-c2cccnc2[C@H](C)OC)c2c3cc(ccc31)-c1cccc(c1)C[C@H](NC(=O)[C@H](C(C)C)N1CC[C@]3(CCN(C(=O)C#C[C@H]4COCCN4C4COC4)C3)C1=O)C(=O)N1CCC[C@H](N1)C(=O)OCC(C)(C)C2` (atropisomer, axis not shown) [Example A568], the figures for the negative logarithm of the IC50 (pIC50) on KRAS G12S and on KRAS G12D were 5.00 to 6.00 and under 5.00, respectively.

Regarding `CCn1c(-c2cccnc2[C@H](C)OC)c2c3cc(ccc31)-c1csc(n1)C[C@H](NC(=O)[C@H](C(C)C)N(C)C(=O)N1C[C@@H]3CN(C(=O)C#CC(C)(C)N(C)C)CC[C@@H]31)C(=O)N1CCC[C@H](N1)C(=O)OCC(C)(C)C2` (atropisomer, axis not shown) [Example A625], the pIC50 at KRAS G12S was 6.00 to 7.00; on KRAS G12D it was 5.00 to 6.00.
